Values of other authors, collected in patent US9446004B2, “Transdermal nicotine salt delivery system” (ALZA Corporation, priority 2005, dated 2016).
Like-named read-outs stand apart in the source and are kept apart here.

Structure (SMILES): CN1CCCC1c1cccnc1 (centres unmarked) [Nicotine]
- pKa (first pKa): about 8
- pKa (second pKa): ~3
